Details: Coaxial cylinder method

CCC [propane]
thermal conductivity [W/m/K]
Details	366.45 K	367.32 K
4010 kPa, Gas	–	0.04654
4012 kPa, Gas	–	0.04665
4013 kPa, Liquid	0.1345	–
4014 kPa, Gas	–	0.04687
4014 kPa, Liquid	0.132	–
4015 kPa, Liquid	0.1298	–
4016 kPa, Liquid	0.127	–
4017 kPa, Liquid	0.1241	–
4018 kPa, Liquid	0.1223	–
4019 kPa, Liquid	0.1202	–
4020 kPa, Liquid	0.1175	–
4021 kPa, Liquid	0.1145	–
4022 kPa, Liquid	0.1126	–
4023 kPa, Liquid	0.1108	–
4024 kPa, Liquid	0.1089	–
4025 kPa, Gas	–	0.04792
4025 kPa, Liquid	0.107	–
4026 kPa, Gas	–	0.05076
4026 kPa, Liquid	0.1052	–
4027 kPa, Gas	–	0.05394
4027 kPa, Liquid	0.1035	–
4028 kPa, Gas	–	0.05642
4028 kPa, Liquid	0.1018	–
4029 kPa, Gas	–	0.05957
4029 kPa, Liquid	0.1003	–
4030 kPa, Gas	–	0.06288
4030 kPa, Liquid	0.09876	–
4031 kPa, Gas	–	0.06655
4031 kPa, Liquid	0.09718	–
4032 kPa, Gas	–	0.06997
4032 kPa, Liquid	0.09578	–
4033 kPa, Gas	–	0.07414
4033 kPa, Liquid	0.09438	–
4034 kPa, Gas	–	0.07824
4034 kPa, Liquid	0.0931	–
4035 kPa, Gas	–	0.08231
4035 kPa, Liquid	0.09185	–
4036 kPa, Gas	–	0.08718
4036 kPa, Liquid	0.09064	–
4037 kPa, Gas	–	0.09169
4037 kPa, Liquid	0.08946	–
4038 kPa, Gas	–	0.09661
4038 kPa, Liquid	0.0883	–
4039 kPa, Gas	–	0.1018
4039 kPa, Liquid	0.08718	–
4040 kPa, Gas	–	0.1068
4040 kPa, Liquid	0.08608	–
4041 kPa, Gas	–	0.1118
4042 kPa, Gas	–	0.1171
4043 kPa, Gas	–	0.1226
4044 kPa, Gas	–	0.1282
4045 kPa, Gas	–	0.134
4045 kPa, Liquid	0.08137	–
4046 kPa, Gas	–	0.1397
4047 kPa, Gas	–	0.145
4048 kPa, Gas	–	0.1514
4050 kPa, Gas	–	0.1645
4050 kPa, Liquid	0.0775	–
4051 kPa, Gas	–	0.1714
4052 kPa, Gas	–	0.1781
4053 kPa, Gas	–	0.1856
4054 kPa, Gas	–	0.1925
4055 kPa, Gas	–	0.1998
4055 kPa, Liquid	0.07438	–
4056 kPa, Gas	–	0.2078
4057 kPa, Gas	–	0.2153
4057 kPa, Liquid	0.07324	–
4058 kPa, Gas	–	0.2233
4059 kPa, Gas	–	0.2315
4060 kPa, Liquid	–	0.2315
4061 kPa, Liquid	–	0.2164
4062 kPa, Liquid	–	0.2079
4063 kPa, Liquid	–	0.1998
4064 kPa, Liquid	–	0.1925
4065 kPa, Liquid	0.06968	0.1857
4070 kPa, Liquid	0.06809	–
4075 kPa, Liquid	0.0668	–
4080 kPa, Liquid	0.0658	–
4085 kPa, Liquid	0.06508	–
4090 kPa, Liquid	0.06449	–
4095 kPa, Liquid	0.06445	–
4100 kPa, Liquid	0.06429	–
4105 kPa, Liquid	0.06425	–
4110 kPa, Liquid	0.06421	–
4115 kPa, Liquid	0.06418	–
4120 kPa, Liquid	0.06414	–
4125 kPa, Liquid	0.0641	–
4130 kPa, Liquid	0.06408	–
4140 kPa, Liquid	0.06408	–
4150 kPa, Liquid	0.06404	–
4160 kPa, Liquid	0.064	–
4170 kPa, Liquid	0.06396	–
4180 kPa, Liquid	0.06392	–
4190 kPa, Liquid	0.06394	–
4200 kPa, Liquid	0.06392	–
4210 kPa, Liquid	0.06392	–
4220 kPa, Liquid	0.06388	–
4230 kPa, Liquid	0.06388	–
4240 kPa, Liquid	0.06387	–
4250 kPa, Liquid	0.06387	–
4260 kPa, Liquid	0.0639	–
4270 kPa, Liquid	0.0639	–
4280 kPa, Liquid	0.0639	–
4290 kPa, Liquid	0.0639	–
4300 kPa, Liquid	0.06392	–
4330 kPa, Liquid	0.06396	–
4400 kPa, Liquid	0.0641	–
4410 kPa, Liquid	0.06416	–
4477 kPa, Liquid	0.06435	–
4491 kPa, Liquid	0.06439	–
